US8461205B2, “Anthranilic acid derivatives” (Chelsea Therapeutics, Inc., priority 2007, dated 2013)

Tests used:
DHODH = DHODH (Homo sapiens, UniProt Q02127); assay: DHODH inhibition; format: biochemical
cell proliferation = settings: effect stated to be unrelated to DHODH inhibition; cited from earlier work
[1] = test system: human T lymphoblast cell line (Jurkat); assay: Inhibition of T-cell proliferation (Jurkat, 3H-TdR incorporation); format: cell-based; settings: Homo sapiens; Jurkat cells, 3 days culture, 3H-TdR pulse last 4 hours
Description: Inhibition of T cell proliferation was studied in a functional assay. A human T lymphoblast cell line (Jurkat) was cultured in the presence and absence, respectively, of DHODH inhibiting compounds. Jurkat cells were seeded in microtiterplates at a concentration of 5×10^5/mL in RPMI 1640 growth media supplemented with ultraglutamin, 10% fetal calf serum, 1 mM sodium pyruvat, 10 mM HEPES and 0.1 mg/mL gentamycin. A dilution series of ten different concentrations of inhibitor was added to the wells and the plates were kept in a cell incubator for 3 days. At the beginning of the last 4 hours period, the cultures were pulsed with 10 μl/well 0.1 Ci/mmol 3H-TdR and then harvested on filter papers and counted with a ([…]. The IC50 values for each compound were calculated from the obtained dose response curves. Adding uridine to a concentration of about 50 μM in the wells monitored the specificity for the mechanism i.e., the inhibition of cell proliferation is due to DHODH inhibition and not to a general cell toxicity of the compounds. This addition of uridine reverses the anti-proliferative effect by bypassing the DHODH enzyme using an external source of pyrimidine. Results in respect of a number of compounds of the invention are reported as Jurkat IC50 (in μM) in Table 1.
(§1) The inhibition of T cell proliferation was studied in a human T lymphoblast cell line (Jurkat). The IC50 value for each compound was calculated from the dose response curve. Adding uridine was used to monitor the specificity of the DHODH mechanism. The metabolic stability was studied in human liver microsomes. Table 1 exemplifies the invention, without limiting the scope thereof.

[2] = Metabolic stability in human liver microsomes; format: in vitro ADME; settings: human liver microsomes, 0.5 μM compound, 1 mg/mL protein, 1 mM NADPH, pH 7.4, 37° C.; "stable" = no degradation could be confirmed
Description: The metabolic stability of the test compounds was determined using human liver microsomes. Incubations were performed with a compound concentration of 0.5 μM and a protein concentration of 1 mg/mL in 50 mM sodium phosphate buffer at physiological pH (7.4) and temperature (37° C.). The incubation mixture was preincubated at 37° C. prior to addition of NADPH (1 mM, final concentration). At several time points during 60 minutes, aliquots were removed and added to a 96 well plate placed on dry ice and deep-frozen. Samples were analyzed with LC-MS for concentration of parent compound. From the slope of the log [parent compound] vs. incubation time regression line, the in vitro half-life […] was determined. The intrinsic clearance (CLint) can be calculated using a modified Michaelis-Menten relationship, i.e., CLint=ln 2/t1/2. The CLint can then be converted to CL by using the well-stirred model of hepatic extraction. A value of 1.24 L/h/kg of the hepatic blood flow in man can be used. Results with respect to a number of compounds of the invention are reported as t1/2 (in minutes) in Table 1.
as §1

DHODH, sequence (Q02127 whole entry, species assumed): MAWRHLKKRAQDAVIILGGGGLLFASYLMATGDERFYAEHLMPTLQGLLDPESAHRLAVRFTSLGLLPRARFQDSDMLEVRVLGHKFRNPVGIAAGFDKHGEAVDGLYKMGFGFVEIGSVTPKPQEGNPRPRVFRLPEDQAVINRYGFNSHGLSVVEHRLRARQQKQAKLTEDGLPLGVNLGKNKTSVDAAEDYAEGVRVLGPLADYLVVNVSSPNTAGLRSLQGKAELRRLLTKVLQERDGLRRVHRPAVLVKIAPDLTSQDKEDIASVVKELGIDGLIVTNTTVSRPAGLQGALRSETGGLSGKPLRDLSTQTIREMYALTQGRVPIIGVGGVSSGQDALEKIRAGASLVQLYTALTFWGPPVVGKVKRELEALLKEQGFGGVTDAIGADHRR

COc1ccc(OC)c(COc2ccc(O)c(C(=O)O)c2)c1 [5-(2,5-dimethoxy-benzyloxy)-2-hydroxy-benzoic acid]
activity as DHODH inhibitor (in words) (DHODH): inactive

COC(=O)c1cc(OCc2cc(OC)ccc2OC)ccc1NC(C)=O [2-acetylamino-5-(2,5-dimethoxy-benzyloxy)-benzoic acid methyl ester]
inhibition of cell proliferation (in words) (cell proliferation): inhibits cell proliferation

CCC(=O)Nc1ccc(COc2ccc(Cl)c(C(F)(F)F)c2)cc1C(=O)O [INV 18, 5-(4-Chloro-3-trifluoromethyl-phenoxymethyl)-2-propionylamino-benzoic acid]
IC50 [1]: 840 nM
half-life at 0.5 μM [2]: 464 min

CCC(=O)Nc1ccc(COc2ccc(OC(F)(F)F)cc2Cl)cc1C(=O)O [INV 10, 5-(2-Chloro-4-trifluoromethoxy-phenoxymethyl)-2-propionylamino-benzoic acid]
IC50 [1]: 240 nM
t1/2 [2]: stable
